Measurements published in publication PMC11356571, “The Comparative Metabolism of a Novel Hepatocellular Carcinoma Therapeutic Agent, 2,3-Diamino-N-(4-(benzo[d]thiazol-2-yl)phenyl)propanamide, in Human and Animal Hepatocytes” (Metabolites, 2024).

Key:
CYP2C19 = biological target: T1, CYP2C19 (Homo sapiens, UniProt P33261); experiment: Incubation with human cDNA-expressed CYP2C19; type: in vitro ADME; conditions: CYP2C19, 30 min at 37 °C with NADPH; ETN101 10 μM or M1 1 μM
T1 construct: purchased Cypex Ltd. (Dundee, UK)
Protocol: ETN101 or M1 was incubated with nine human cDNA-expressed CYP enzymes (1A2, 2A6, 2B6, 2C8, 2C9, 2C19, 2D6, 2E1, and 3A4) to identify the CYPs involved in the metabolism of ETN101. Based on the preliminary study, the incubation conditions were determined as follows: Briefly, reaction mixtures of 50 μL containing ETN101 (final concentration: 10 μM) or M1 (final concentration: 1 μM), and CYPs (final amount: 5 pmol for CYP1A2, 2A6, 2C8, 2C9, 2C19, 2D6, and 3A4; 10 pmol for CYP2B6 and 2E1) were prepared in 0.1 M potassium phosphate buffer. The reaction was initiated by adding 50 μL of NADPH- regenerating system; the mixtures were incubated for 0 min or 30 min at 37 °C in triplicate. Reactions were terminated by the addition of 100 μL of ice-cold acetonitrile containing the IS (camptothecin, 200 ng/mL). Samples were centrifuged at 13,000 rpm for 5 min at 4 °C. An aliquot of 2 μL supernatant was injected in LC–MS/MS system.
For enzyme characterization, an Agilent 6460 triple quadrupole mass spectrometer coupled with a 1260 HPLC system (Agilent Technologies, Santa Clara, CA, USA) and a Kinetex Halo® C18 column (2.7 μm, 2.1 × 50 mm, Advanced Material Technology, Wilmington, DE, USA) were used for chromatographic separation. […] ETN101, M1, and M2 were detected via MRM using ESI in the positive mode. […]

CES1b = biological target: T2, CES1b (Homo sapiens, UniProt P23141); experiment: Incubation with human recombinant CES1b; type: in vitro ADME; conditions: 60 min at 37 °C, ETN101 10 μM or M1 1 μM
T2 construct: purchased Corning Life Sciences (Woburn, MA, USA)
T2 sequence (P23141 18-567): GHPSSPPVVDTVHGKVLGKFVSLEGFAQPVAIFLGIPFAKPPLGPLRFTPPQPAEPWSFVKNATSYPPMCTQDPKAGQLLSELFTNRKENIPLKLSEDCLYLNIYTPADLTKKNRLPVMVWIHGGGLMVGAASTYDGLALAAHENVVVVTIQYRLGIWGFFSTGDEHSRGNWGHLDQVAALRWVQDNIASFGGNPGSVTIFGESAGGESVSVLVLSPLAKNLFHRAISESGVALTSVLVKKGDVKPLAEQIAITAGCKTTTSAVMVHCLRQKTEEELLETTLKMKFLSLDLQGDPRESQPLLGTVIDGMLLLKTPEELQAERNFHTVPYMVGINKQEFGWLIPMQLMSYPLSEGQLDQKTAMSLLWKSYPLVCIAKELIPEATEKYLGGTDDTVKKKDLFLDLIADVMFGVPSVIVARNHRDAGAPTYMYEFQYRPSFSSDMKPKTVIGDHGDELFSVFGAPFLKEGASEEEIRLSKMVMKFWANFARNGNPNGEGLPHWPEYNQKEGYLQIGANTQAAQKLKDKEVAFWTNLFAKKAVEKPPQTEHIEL
Protocol: To screen for CES enzymes responsible for the hydrolysis of ETN101 or M1, 50 μL of reaction mixtures containing human cDNA-expressed CES enzymes (CES1b, CES1c, and CES2) at the concentration of 1 mg/mL, 10 μM ETN101, or 1 μM M1 in 0.1 M potassium phosphate buffer were incubated at 37 °C for 0 min or 60 min in triplicate. The reactions were quenched by adding 50 μL of ice-cold acetonitrile containing the internal standard (camptothecin, 10 μg/mL). Following centrifugation at 13,000 rpm for 5 min, a 2 μL aliquot of the supernatant was injected into the LC-MS/MS system.
The mobile phases comprised 0.1% (v/v) formic acid in water (mobile phase A) and 0.1% formic acid (v/v) in acetonitrile (mobile phase B). […] The column and auto-sampler were maintained at 40 °C and 4 °C, respectively. ETN101, M1, and M2 were detected via MRM using ESI in the positive mode. […] Mass Hunter software (Agilent Technologies) was used to control the LC-MS/MS instrument and for data processing.

T1 sequence (P33261 whole entry): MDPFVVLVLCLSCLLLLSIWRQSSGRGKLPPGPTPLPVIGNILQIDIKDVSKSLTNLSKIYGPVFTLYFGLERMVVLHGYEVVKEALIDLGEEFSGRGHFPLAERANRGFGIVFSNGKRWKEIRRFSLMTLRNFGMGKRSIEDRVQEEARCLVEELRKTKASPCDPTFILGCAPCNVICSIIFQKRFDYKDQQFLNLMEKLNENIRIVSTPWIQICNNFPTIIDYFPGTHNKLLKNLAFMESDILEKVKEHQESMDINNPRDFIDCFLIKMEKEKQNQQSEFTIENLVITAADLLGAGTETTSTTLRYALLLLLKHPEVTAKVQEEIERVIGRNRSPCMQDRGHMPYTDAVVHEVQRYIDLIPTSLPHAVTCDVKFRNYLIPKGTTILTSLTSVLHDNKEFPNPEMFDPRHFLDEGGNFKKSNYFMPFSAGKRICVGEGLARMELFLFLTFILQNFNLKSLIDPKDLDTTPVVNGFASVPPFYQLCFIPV

Row | SMILES | Percentage remaining (CYP2C19) | Percentage remaining (CES1b)
1 | NCC(N)C(=O)Nc1ccc(-c2nc3ccccc3s2)cc1 (stereo not shown) [ETN101, 2,3-diamino-N-(4-(benzo[d]thiazol-2-yl)phenyl)propanamide] | 113.0% | 98.6%
2 | Nc1ccc(-c2nc3ccccc3s2)cc1 [M1, 2-(4-aminophenyl)benzothiazole] | 68.7% | 99.6%
